Measurements from patent US12304932B2, “PACAP stabilized peptide” (SENJU PHARMACEUTICAL CO., LTD., priority 2017, dated 2025).
Square brackets hold non-standard residues; d marks the D form. Peptide text beside a SMILES is read from it. Ala(1H-tetrazol-5-yl) = N[C@@H](Cc1nnn[nH]1)C(=O)O

Key:
[1] = Peptide stability test 5: Tris buffer pH 7.0, stored at 60° C., HPLC conditions 3; format: physicochemical; conditions: 100 μM peptide, Tris buffer pH 7.0, 60° C.
Protocol: Peptide 26 synthesized in Example 2 was weighed and dissolved in Tris buffer (pH 7.0) to prepare 1.0 mM peptide solutions. Each solution was filtered with a Chromatdisk (product of Merck Millipore, Millex-GV, 0.22 μm). The filtrate was diluted to 100 μM with Tris buffer (pH 7.0) and dispensed into a tube (Protein LoBind Tube by Eppendorf Co.). The prepared peptide solutions were incubated for one week or 2 weeks in a 60° C. thermostatic bath to obtain stored samples. A simultaneously prepared sample among the peptide solutions that was not stored was used as a standard sample (initial sample). The standard sample and the stored samples were stored at −30° C. until sample analysis.
The stored sample was measured under the following HPLC analysis conditions 3, and the survival rate alter correction for water for the peptide among the stored samples was calculated in the same manner as Example 3.
Column: XSelect CSH C18 by Waters Co., 5 μm, 4.6×250 mm
Guard column: XSelect CSH C18 by Waters Co., 5 4.6×20 mm Guard Cartridge
Detection wavelength: 220 nm
Mobile phase A: 0.1% formic acid in water
Mobile phase B: 0.1% formic acid in acetonitrile
Measuring time: 20 minutes
Measuring sample injection volume: 50 μL
Column temperature: 40° C.
Mobile phase delivery: The mixing ratio of mobile phase A and mobile phase B was varied as shown in Table 9 for linear concentration gradient control.

PAC1 receptor (PAC1R) = target: T1, PAC1 receptor (PAC1R) (Homo sapiens, UniProt P41586); conditions: background statement; cited from earlier work
T1 sequence (P41586 21-468): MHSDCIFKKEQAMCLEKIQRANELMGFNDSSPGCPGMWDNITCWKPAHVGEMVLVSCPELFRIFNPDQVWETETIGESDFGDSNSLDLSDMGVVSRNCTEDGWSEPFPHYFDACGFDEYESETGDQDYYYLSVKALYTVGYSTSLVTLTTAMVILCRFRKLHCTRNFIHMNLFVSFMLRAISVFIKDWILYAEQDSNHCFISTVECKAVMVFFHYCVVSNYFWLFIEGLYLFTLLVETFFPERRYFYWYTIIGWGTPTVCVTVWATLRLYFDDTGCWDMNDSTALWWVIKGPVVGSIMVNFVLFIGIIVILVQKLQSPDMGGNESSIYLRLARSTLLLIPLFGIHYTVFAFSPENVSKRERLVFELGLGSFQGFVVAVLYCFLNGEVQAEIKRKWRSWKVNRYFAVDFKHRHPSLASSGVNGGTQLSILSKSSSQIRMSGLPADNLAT

Molecule | survival rate after correction for water, 60° C., 1-week storage ([1]; 1 week) [%] | survival rate after correction for water, 60° C., 2-week storage ([1]; 2 weeks) [%] | affinity of PAC1R for PACAP relative to its affinity for VIP (PAC1 receptor (PAC1R))
CC[C@H](C)[C@H](NC(=O)CNC(=O)[C@H](Cc1nnn[nH]1)NC(=O)[C@H](CO)NC(=O)[C@H](Cc1c[nH]cn1)NC(C)=O)C(=O)N[C@@H](Cc1ccccc1)C(=O)N[C@H](C(=O)N[C@@H](Cc1nnn[nH]1)C(=O)N[C@@H](C)C(=O)N[C@@H](Cc1ccc(O)cc1)C(=O)N[C@@H](CO)C(=O)N[C@@H](CCCNC(=N)N)C(=O)N[C@@H](Cc1ccc(O)cc1)C(=O)N[C@@H](CCCNC(=N)N)C(=O)N[C@@H](CCCCN)C(=O)N[C@@H](C)C(=O)N[C@@H](CC(C)C)C(=O)N[C@@H](C)C(=O)N[C@H](C(=O)N[C@@H](CCCCN)C(=O)N[C@@H](CCCCN)C(=O)N[C@@H](Cc1ccc(O)cc1)C(=O)N[C@@H](CC(C)C)C(=O)N[C@@H](C)C(=O)N[C@@H](C)C(=O)N[C@H](C(=O)N[C@@H](CC(C)C)C(N)=O)C(C)C)C(C)C)[C@@H](C)O [Peptide 26] (Ac-HS[Ala(1H-tetrazol-5-yl)]GIFT[Ala(1H-tetrazol-5-yl)]AYSRYRKALAVKKYLAAVL-NH2) | 98.0 | 94.8 | 
Pituitary adenylate cyclase-activating polypeptide [PACAP] |  |  | more than 1000 times
